Read-outs that look alike come from different tables or passages of the source.
Key:
[1] = Stability experiment: retention rate of reduced coenzyme Q10 on storage; type: physicochemical; conditions: stored under shading or nitrogen at 18° C.
Method: Determining the proportion of reduced coenzyme Q10 in reduced coenzyme Q10 powder or crystals by the HPLC method. Determination conditions are as follows:
Instruments: Agilient 1210
Mobile phase: ethanol/methanol=4/3(V/V)
Detection wavelength: 210 nm
Sample 1 and Sample 2 and Sample 3 obtained by Example 1, Example 2, Example 3 are respectively stored under shading or nitrogen for two months at 18° C. The retention rate of reduced coenzyme Q10 is respectively determined within 1 month and 2 months.

[2] = Beagle feeding experiment: pharmacokinetic parameters and relative bioavailability; type: in vivo; conditions: gastric gavage 20 mg/kg, average
Method: Sample 1 and Sample 2 and Sample 3 obtained by Example 1, Example 2, Example 3 are used for beagle feeding experiment respectively, and the reduced coenzyme Q10 concentration in blood of feed beagle is determined, a basic pharmacokinetic parameters and relative bioavailability is calculated.
4 beagles, half male and half female, 9-12 kg weight, provided by Shanghai Institute of Medicine Center for experimental animals, laboratory animals use license: SYXK (Shanghai), 2010-0049. A cross double cycle test is made. Gastric gavage is respectively for Sample 1, 2, 3, to fill stomach in a dose of 20 mg/kg, a delivery volume of 2 ml/kg. Samples with a suspension of soybean oil mixture for medicine (filling water 20 ml after feeding), normally feeding and drinking before testing, feeding feed containing meat on morning of the same day of feeding the medicine, to fill the stomach after 30 min. Two cycle tests are interval for a week.
Calculate the Pharmacokinetic Parameters of Compounds by WinNonlin 5.3 Software.
Peak-reaching time Tmax and peak-reaching concentration Cmax use measured values. Drug concentration area under time curve AUC0-t value is calculated by the trapezoidal method, AUC0-∞ is calculated by the formula AUC0-∞=AUC0-t+Ct/ke. Ct is a concentration measured by the last time point, ke is an eliminate rate constant, with half logarithmic mapping method, calculation by eliminating the concentration of the phase; Plasma elimination half-life t1/2=0.693/ke. Relative bioavailability F=(AUC0-t, Sample 2 or 3/AUC0-t, Sample 1)×100%. The main pharmacokinetic parameters after Beagle lavage for 20 mg/kg sample.

[3] = both sexes, dog, blood, po, 20 mg/kg, suspension in soybean oil

| Compound | The retention rate of reduced coenzyme Q10 within 1 month [1] [%] | The retention rate of reduced coenzyme Q10 within 2 months [1] [%] | The retention rate of reduced coenzyme Q10 within 2 months ([1]; listed as reduced coenzyme Q10 powder obtained by the method) [%] | AUC0-t ([2]; suspension in soybean oil) [ng·h/mL] | AUC0-∞ ([2]; suspension in soybean oil) [ng·h/mL] | Cmax ([2]; suspension in soybean oil) [ng/mL] | MRT ([2]; suspension in soybean oil) [h] | Tmax ([2]; suspension in soybean oil) [h] | t1/2 ([2]; suspension in soybean oil) [h] | The retention rate of reduced coenzyme Q10 within 2 months ([1]; listed as Samples 2) [%] | bioavailability ([2]; both sexes, dog, blood, po, 20 mg/kg, F=(AUC0-t, Sample 2 or 3/AUC0-t, Sample 1)×100%) [%] | AUC(0-inf) [2, 3] [ng·h/mL] | half-life [2, 3] [min] | AUC0-t ([2]; both sexes, dog, blood, po, 20 mg/kg, suspension in soybean oil, read-out: AUC0-t) [ng·h/mL] | Cmax ([2]; both sexes, dog, blood, po, 20 mg/kg, suspension in soybean oil, read-out: Cmax) [ng/mL] | MRT ([2]; both sexes, dog, blood, po, 20 mg/kg, suspension in soybean oil, read-out: MRT) [h] | Tmax ([2]; both sexes, dog, blood, po, 20 mg/kg, suspension in soybean oil, read-out: Tmax) [h] |
| --- | --- | --- | --- | --- | --- | --- | --- | --- | --- | --- | --- | --- | --- | --- | --- | --- | --- |
| COc1c(O)c(C)c(C/C=C(\C)CC/C=C(\C)CC/C=C(\C)CC/C=C(\C)CC/C=C(\C)CC/C=C(\C)CC/C=C(\C)CC/C=C(\C)CC/C=C(\C)CCC=C(C)C)c(O)c1OC [Sample 1, reduced coenzyme Q10] | 98.4 | 95.5 | 95.5 | 3640 | 2865 | 303 | 10.9 | 7.5 | 6.11 | – | – | – | – | – | – | – | – |
| COc1c(O)c(C)c(C/C=C(\C)CC/C=C(\C)CC/C=C(\C)CC/C=C(\C)CC/C=C(\C)CC/C=C(\C)CC/C=C(\C)CC/C=C(\C)CC/C=C(\C)CCC=C(C)C)c(O)c1OC [Sample 2, reduced coenzyme Q10] | 75.4 | 66.3 | – | 2359 | 2405 | 261 | 7.77 | 4.5 | 3.94 | 66.3 | – | – | – | – | – | – | – |
| COc1c(O)c(C)c(C/C=C(\C)CC/C=C(\C)CC/C=C(\C)CC/C=C(\C)CC/C=C(\C)CC/C=C(\C)CC/C=C(\C)CC/C=C(\C)CC/C=C(\C)CCC=C(C)C)c(O)c1OC [Sample 3, reduced coenzyme Q10] | 89.3 | 85.4 | – | – | – | – | – | – | – | – | 74.7 | 2660 | 286 | 2760 | 287 | 8.35 | 6.3 |
